Drawing on the METLIN SMRT retention time set (Domingo-Almenara et al. 2019), this text covers RP-LC retention time for 80 molecules.

Molecules are shown by their SMILES.

The nature of this series: gradient 5% acetonitrile 3 min, to 50% in 2 min, to 85% in 15 min, held 3 min, 100 µL/min. The note with it: column: Zorbax Extend-C18 2.1 x 50 mm; eluents: water / acetonitrile, 0.1% formic acid. In a few lines: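 In both positive and negative ionization mode, a quadrupole time-of-flight mass spectrometer coupled to HPLC analyzed pure standards run in mixtures of ~100 molecules. The Zorbax Extend-C18 column (2.1 × 50 mm, 1.8 μm) was operated at 100 μL/min with water and acetonitrile, each containing 0.1% formic acid. The dead volume was 40 μL and the dwell volume 900 μL. Retention time came from adduct peaks that were computationally picked and individually inspected by hand.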
Take `NC(=O)C1CCN(C(c2ccccc2F)c2sc3nc(-c4ccco4)nn3c2O)CC1` (stereo not given): the RP-LC retention time was 677 s. With `COc1cc(NC(=O)CCc2nc(-c3ccc(N4CCCC4)cc3)no2)cc(OC)c1` the figure was 1070 s.

As for `Cc1ccc(CCNS(=O)(=O)c2ccc3c(c2)CCCC(=O)N3)cc1`, the RP-LC retention time came out at 789 s. Next, `COCCCNC(=O)N1CCCC1c1nc(-c2cccc(C)c2)no1` (stereo not given): 810 s; `Cc1nc2ccc(NC(=O)c3cccnc3)cc2c(=O)n1-c1ccc(F)cc1`: 623 s. With `O=c1c2sccc2n(Cc2nc(-c3ccc(C(F)(F)F)cc3)no2)c(=O)n1-c1ccc(F)cc1` the figure was 1080 s. The molecule `O=C(CCCc1ccccc1)Nc1cnn(-c2ncc(N3CCCC3)cn2)c1` had an RP-LC retention time of 849 s. With `Cc1ccc(-c2nc(-c3ccc4c(c3)ncn4CCN3CCOCC3)no2)cc1C` the figure was 685 s; with `Cc1sc2ccn(C)c(=O)c2c1C(=O)NCc1cccc(Br)c1`, 834 s; with `O=c1c(NCc2ccccn2)nc2ccncc2n1Cc1ccccc1`, 578 s.

Turning to `CCc1ccc(CNC(=O)Cc2nnc(-c3ccccn3)o2)cc1`, the RP-LC retention time came to 743 s. Next, `CC(=O)Nc1ccc(Nc2nc3ccccc3nc2NS(=O)(=O)c2cccs2)cc1`: 794 s. With `CCC(Sc1ncnc2c1cnn2-c1ccc(F)cc1)C(=O)OC` (stereo not given) the figure was 1170 s; with `CC(C(=O)Nc1ccc(F)c(F)c1)C1CCN(C(=O)Nc2ccc(Cl)cc2)CC1` (stereo not given), 984 s; with `O=C(NC1CCCC1)c1nc(C(=O)N2CCN(c3cccc(Cl)c3)CC2)cs1`, 1020 s. Next, `Cc1ccc2c(c1)sc1nc(C)c(S(=O)(=O)Nc3ccc(Cl)cc3)c(=O)n12`: 1160 s; `Nc1cc(C2CCN(C(=O)c3ccc4c(c3)OCO4)CC2)no1`: 651 s; `O=C(NC1CC1)C1CCN(S(=O)(=O)c2ccc3[nH]c4c(c3c2)CCCCC4)CC1`: 862 s. Turning to `CCc1ccc(NC(=O)Cn2c(=O)n(-c3ccccc3)c(=O)c3c2cc(C)n3C)cc1`, the RP-LC retention time worked out at 886 s. In the case of `Cc1ccc(Nc2c(-c3cccc([N+](=O)[O-])c3)nc3ccc(Cl)cn23)cc1`, the RP-LC retention time amounted to 1100 s. For the molecule `COc1ccccc1NC(=O)c1[nH]c2cc(C)sc2c1CN1CCOCC1`, the RP-LC retention time was 693 s. With `Cc1nnc2cc(N3CCN(C(=O)Nc4ccccc4Cl)CC3)cnn12` the figure was 567 s; with `COc1cc(OC)cc(C(=O)N2CCc3cn(C)c4cccc(c34)C2)c1`, 952 s; with `O=C(Nc1cccc(F)c1)C1CCCN(S(=O)(=O)c2c[nH]c(C(=O)N3CCCC3)c2)C1` (stereo not given), 808 s.

Molecule `COc1ccc(Cl)cc1C(=O)N1CCCN(C2CCN(CC3CC3)C2=O)CC1` (stereo not given) returned an RP-LC retention time of 553 s. With `Cc1cccc(-c2nc3ccccn3c2NC(=O)NCc2ccco2)c1` the figure was 640 s; with `CN(C)S(=O)(=O)c1ccc(C(=O)N2CCCC(c3nnc(-c4cccs4)o3)C2)cc1` (stereo not given), 714 s; with `CCCC(=O)Nc1nc(-c2ccc3c(c2)NC(=O)C(C)O3)cs1` (stereo not given), 806 s.

With `CN1C(=O)[C@H]2CN(Cc3ccccc3OC(F)(F)F)C[C@H]2C1=O`, the RP-LC retention time is 691 s.

In the case of `COc1ccc(CC(=O)N2CCCC2c2cc(C)on2)cc1` (stereo not given), the RP-LC retention time was determined as 736 s. `CC(C)CC(=O)N1CCCC(c2nc(CNC(=O)C(C)C)cs2)C1` (stereo not given) registered an RP-LC retention time of 705 s. Next, `Cc1ccc(N2CC(c3noc(-c4ccoc4)n3)CC2=O)cc1` (stereo not given): 868 s.

`O=c1n(Cc2cccc(F)c2)nc2ccc(S(=O)(=O)N3CCOCC3)cn12`: the RP-LC retention time came to 800 s. With `CCOc1ccc(OCCNC(=O)NC2CCCCC2)cc1` the figure was 800 s; with `CCc1noc(NC(C)=O)c1-c1ccc(OC)c(S(=O)(=O)N2CCOCC2)c1`, 676 s. `COc1ccccc1-n1nnc(C(=O)NCc2nc3ccccc3n2C)c1-c1ccccn1` came in with an RP-LC retention time of 574 s.

`COc1cc2c(cc1OC)C(C(=O)NCc1ccc3c(c1)OCO3)C1c3ccccc3CCN1C2=O` (stereo not given) yielded an RP-LC retention time of 788 s. Next, `CCCCN(C)C(=O)C1CCCN(c2nnc(C)c3c(C)n(-c4ccc(Cl)cc4)nc23)C1` (stereo not given): 782 s. In the case of `COc1cccc(OC)c1OCCNCC1CSc2ccccc2O1` (stereo not given), the RP-LC retention time stood at 815 s. On to `Cn1ncc2c3ccccc3n(CC(=O)N3CCN(c4ccccc4)CC3)c2c1=O`, for which the RP-LC retention time turned out to be 784 s. As to `CCCCC(=O)Nc1ccc2nc(N3CCN(c4cc(Cl)ccc4C)CC3)cc(C(=O)O)c2c1`, the RP-LC retention time is 851 s.

Molecule `O=C(NCc1ccc(F)cc1)C1(CCO)CCN(c2ncccn2)C1` (stereo not given) returned an RP-LC retention time of 609 s. Next, `Cc1cc([N+](=O)[O-])ccc1NC(=O)C1COc2ccccc2O1` (stereo not given): 920 s.

`COc1ccc(S(=O)(=O)N2C[C@@H]3C[C@H]2C[C@@H]3NC(=O)c2cccs2)cc1Cl` displayed an RP-LC retention time of 792 s. On to `Cc1ccc(CNC(=O)c2ccc3c(c2)CC(=O)N3C)cc1C`, for which the RP-LC retention time was 765 s.

Consider `CC(Cc1ccco1)NC(=O)CN1C(=O)C2CCCCN2c2ccc(S(=O)(=O)N(C)C)cc21` (stereo not given), for which the RP-LC retention time came out at 879 s.

In turn, `O=C(c1cc(-c2ccccc2)n[nH]1)N1CCN(c2ccc(N3CCOCC3)nn2)CC1` gave an RP-LC retention time of 595 s. With `Cc1cccc(-c2nnc3ccc(Cl)nn23)c1` the figure was 823 s; with `COc1ccccc1OCCNC(=O)c1ccc2c(=O)n(-c3ccccc3)c(N3CCCC3)nc2c1`, 834 s; with `CCc1nn2c(CNS(=O)(=O)c3ccc(F)cc3F)c(-c3ccccc3)nc2s1`, 942 s.

Consider `O=C(Cn1nc2c(cc1=O)CCCC2)NCCc1c[nH]c2ccc(F)cc12`, for which the RP-LC retention time was determined as 753 s. The molecule `O=C(c1nc2ccccn2c1-c1ccsc1)N1CCCC1` gave an RP-LC retention time of 622 s.

With `Cc1nn(-c2ccc(-c3ccccc3)nn2)c(C)c1S(=O)(=O)NCCC(C)C`, the RP-LC retention time was found to be 1130 s. In turn, `O=C(CCc1ccccc1)Nc1ccc2[nH]c(=O)oc2c1` had an RP-LC retention time of 713 s. For the molecule `Cc1noc(-c2cccc(OC3CN(C(=O)Cc4ccsc4)C3)c2)n1`, the RP-LC retention time amounted to 857 s. Molecule `Cc1cccc(-c2nc(Cc3noc(-c4ccncc4)n3)c(C)o2)c1` returned an RP-LC retention time of 1010 s. With `O=C(NCc1ccc(F)c(Cl)c1)c1cn2c(n1)CCCC2` the figure was 628 s; with `Cc1ccc(-c2nc(-c3ccc4nnn(C)c4c3)no2)cc1`, 968 s. For `COc1ccc(OC)c(NC(=O)C(C)n2cnc3nc4c(cc3c2=O)CCCC4)c1` (stereo not given), the RP-LC retention time turned out to be 755 s. With `O=c1cccnn1CCCNS(=O)(=O)c1ccc(F)c(C(F)(F)F)c1` the figure was 741 s; with `O=C(c1cnn2c(-c3ccc4c(c3)OCO4)ccnc12)N1CCN(c2ccccc2)CC1`, 864 s; with `CCOC(=O)C1CCN(C(=O)COc2ccc(NC(C)=O)cn2)CC1`, 633 s. With `CCOC(=O)c1noc2ncnc(Nc3ccccc3OCC)c12` the figure was 971 s. With `CC(C)N1C(=O)Cc2ccccc2C1C(=O)NCc1ccccc1Br` (stereo not given), the RP-LC retention time worked out at 825 s. Molecule `COc1ccc(C(=O)NC2CCN(c3cc(-c4ccc(F)cc4)[nH]n3)C2)c(OC)c1` (stereo not given) gave an RP-LC retention time of 740 s. In turn, `Cc1ccc(-c2ocnc2C(=O)NCCCN2CCc3ccccc3C2)s1` showed an RP-LC retention time of 727 s. Next, `O=C(Cn1c(=O)n(-c2ccccc2)c2ncccc21)NC1CCCCCC1`: 845 s; `CC1CCCCN1c1ccn2c(=O)n(CC(=O)Nc3ccc(F)cc3)nc2n1` (stereo not given): 759 s. For the molecule `COCc1noc([C@@H]2CC(F)(F)CN2C(=O)C2CC=CC2)n1`, the RP-LC retention time was 777 s. Regarding `Cc1ccc2nc(C(=O)NCc3ccc(F)cc3)cn2c1`, the RP-LC retention time was found to be 645 s. Next, `COc1ccc(OC)c(NC(=O)CCc2c(C)nn(-c3cc(N4CCCC4)ncn3)c2C)c1`: 827 s; `CN(C)C(CNC(=O)C(=O)NCCC1=CCCCC1)c1ccsc1` (stereo not given): 590 s. Next, `Cc1cccc(-c2nc(-c3cccc(-c4ccnn4C)c3)no2)c1`: 1220 s; `Cc1ccc(-c2ccc3nnc(CCC(=O)NC4CCC(C)CC4)n3n2)cc1C` (stereo not given): 854 s; `Cc1ccc(C(=O)Nc2ccc(-n3c(C)nc4ccccc4c3=O)cc2C)s1`: 821 s.

The molecule `Cc1cc2nc(C(=O)Nc3ccc(F)c(Cl)c3)cc(C)n2n1` came in with an RP-LC retention time of 1080 s.

Consider `O=C(Nc1cnc(-c2ccc(Cl)cc2)nc1)c1cccs1`, for which the RP-LC retention time amounted to 1040 s. Next, `COc1ccc(OCC(=O)N2CCC(C(=O)NCCc3csc(-c4cccs4)n3)CC2)cc1`: 777 s; `COc1ccc(OC)c(S(=O)(=O)N2CCc3c(c(-c4nnc(-c5ccc(F)cc5)o4)nn3C)C2)c1`: 900 s. Consider `Cc1ccc(-c2nnc(Cc3nc(-c4ccccc4C)no3)o2)cc1`, for which the RP-LC retention time was determined as 1100 s.
